Among the test systems are A498; PC-3; SK-OV-3; MDA-MB-435; 786-0; U-251; NCI/ADR-RES; NCI-H522; KM12; TK-10; SK-MEL-28; SNB-19; UO-31; EKVX; A549; RXF 393; HCT-15; MDA-MB-231; SNB-75; OVCAR-8.
What all share (assay): growth of human tumour cells (NCI), 48 h

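Cultured in 96-well plates, cells were exposed to test compound for 48 hours across five concentrations. At the GI50, growth is halved.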 The source made the active and inactive calls. No stated cut-off is given here; in the data, active = GI50 up to about 1.1 µM and inactive = higher.

Take `O=C(CSc1nc2ccc([N+](=O)[O-])cc2s1)c1ccc2ccccc2c1`: the GI50 is > 100 µM (inactive) in the test with A498; 88.1 µM (inactive) with PC-3; > 100 µM (inactive) in the test with SK-OV-3; > 100 µM (inactive) in the test with MDA-MB-435; 34 µM (inactive) in the test with 786-0; > 100 µM (inactive) with U-251. Further, the GI50 in the test on NCI/ADR-RES is > 100 µM (inactive); in the test with NCI-H522, > 100 µM (inactive); in the test on KM12, > 100 µM (inactive); with TK-10 it was 54.2 µM (inactive); with SK-MEL-28, > 100 µM (inactive); in the test on SNB-19, 50.2 µM (inactive). The GI50 in the test with UO-31 was > 100 µM (inactive); in the test on EKVX it was > 100 µM (inactive); in the test with A549 it was > 100 µM (inactive); in the test on RXF 393, > 100 µM (inactive); in the test with HCT-15, > 100 µM; with MDA-MB-231 it was > 100 µM (inactive). The GI50 with SNB-75 is > 100 µM (inactive); in the test on OVCAR-8, 37.4 µM (inactive).

Turning to `CC(C)(C)N(Cc1ccc2c(c1)OCO2)C(=O)/C=C\[S+]([O-])c1ccccc1` (stereo not given), the GI50 in the test with A498 is 9.48 µM (inactive); with PC-3, 2.5 µM (inactive); in the test with SK-OV-3, 3.01 µM (inactive); with MDA-MB-435 it was 2.12 µM (inactive); with 786-0, 2.25 µM (inactive); in the test with U-251 it was 4.33 µM (inactive). Moreover, the GI50 was 2.48 µM (inactive) in the test on NCI/ADR-RES; 0.516 µM (active) in the test on NCI-H522; 3.85 µM (inactive) in the test on KM12; 4.55 µM (inactive) in the test with TK-10; 7.89 µM (inactive) with SK-MEL-28; 7.67 µM (inactive) with SNB-19. In addition, the GI50 in the test with UO-31 was 2.19 µM (inactive); in the test with EKVX it was 7.29 µM (inactive); in the test with A549, 4.6 µM (inactive); in the test with RXF 393, 1.91 µM (inactive); in the test on HCT-15, 2.65 µM; in the test on MDA-MB-231, 2.95 µM (inactive). Moreover, the GI50 is 2.99 µM (inactive) in the test with SNB-75 and 2.03 µM (inactive) with OVCAR-8.

`COC(=O)C(C(=O)C(=O)NC1Nc2ccc(C)cc2S1)c1nc2ccc(Cl)cc2nc1O` (stereo not given): the GI50 in the test with A498, in the test on PC-3, in the test with SK-OV-3, in the test on MDA-MB-435, with 786-0 and in the test on U-251 was > 100 µM (inactive) each time. For the same molecule, the GI50 in the test with NCI/ADR-RES was > 100 µM (inactive); in the test with NCI-H522, > 100 µM (inactive); in the test on KM12 it was > 100 µM (inactive); in the test with TK-10, > 100 µM (inactive); in the test on SK-MEL-28, > 100 µM (inactive); in the test on SNB-19, 96.4 µM (inactive). Further, the GI50 in the test on UO-31 is > 100 µM (inactive); in the test with EKVX it was 60.1 µM (inactive); with A549, > 100 µM (inactive); in the test on RXF 393, > 100 µM (inactive); in the test on HCT-15, > 100 µM; in the test with MDA-MB-231, > 100 µM (inactive). Moreover, the GI50 with SNB-75 and in the test on OVCAR-8 was > 100 µM (inactive) in each case.

Take `COC(=O)[C@@H](N1C(=O)c2ccccc2C1=O)C1(C)CC(Cl)=NO1` (stereo not given in full): the GI50 in the test on A498 was 34.7 µM (inactive); with PC-3, > 100 µM (inactive); with SK-OV-3 it was 33.8 µM (inactive); in the test with MDA-MB-435 it was > 100 µM (inactive); with 786-0, 34.8 µM (inactive); in the test on U-251, 26.2 µM (inactive). Moreover, the GI50 is 26.8 µM (inactive) in the test on NCI/ADR-RES; 35 µM (inactive) with NCI-H522; > 100 µM (inactive) in the test with KM12; 31.1 µM (inactive) in the test with TK-10; > 100 µM (inactive) with SK-MEL-28; 24.8 µM (inactive) in the test with SNB-19. Also, the GI50 in the test with UO-31 was > 100 µM (inactive); in the test with EKVX, 38.8 µM (inactive); in the test on A549, 86.1 µM (inactive); in the test on RXF 393 it was 41.5 µM (inactive); with HCT-15 it was > 100 µM; in the test with MDA-MB-231, 19.1 µM (inactive). The GI50 with SNB-75 is 17.8 µM (inactive); in the test with OVCAR-8, 19.1 µM (inactive).

`[O-]c1c[n+](CC[n+]2cc([O-])on2)no1`: the GI50 with A498, in the test on PC-3, in the test with SK-OV-3, in the test on MDA-MB-435, in the test on 786-0 and in the test on U-251 was > 100 µM (inactive) in each case. Further, the GI50 with NCI/ADR-RES, in the test with NCI-H522, with KM12, in the test on TK-10, with SK-MEL-28 and in the test on SNB-19 was > 100 µM (inactive) throughout. Moreover, the GI50 in the test with UO-31 was > 100 µM (inactive); in the test on EKVX it was > 100 µM (inactive); in the test on A549 it was > 100 µM (inactive); with RXF 393, > 100 µM (inactive); in the test on HCT-15, > 100 µM; in the test on MDA-MB-231, > 100 µM (inactive). Besides, the GI50 with SNB-75 and in the test with OVCAR-8 was > 100 µM (inactive) throughout.

Turning to `O[C@@H]1CCC[C@@H]2NC[C@@H](c3ccc4c(c3)OCO4)[C@H]12`, the GI50 with A498, in the test with PC-3, in the test on SK-OV-3, in the test on MDA-MB-435, in the test on 786-0 and in the test on U-251 was > 100 µM (inactive) each time. Further, the GI50 in the test with NCI/ADR-RES, in the test on NCI-H522, with KM12, with TK-10, in the test with SK-MEL-28 and in the test on SNB-19 was > 100 µM (inactive) throughout. Further, the GI50 is > 100 µM (inactive) in the test with UO-31; > 100 µM (inactive) in the test with EKVX; > 100 µM (inactive) in the test with A549; > 100 µM (inactive) in the test with RXF 393; > 100 µM with HCT-15; > 100 µM (inactive) in the test with MDA-MB-231. The GI50 in the test with SNB-75 and with OVCAR-8 was > 100 µM (inactive) throughout.

As for `O=C(Cn1cc(F)c(=O)[nH]c1=O)C12CC3CC(CC(C3)C1)C2`, the GI50 in the test on A498, in the test with PC-3, with SK-OV-3, in the test with MDA-MB-435, in the test on 786-0 and in the test on U-251 was > 100 µM (inactive) throughout. Also, the GI50 in the test with NCI/ADR-RES, in the test with NCI-H522, in the test with KM12, in the test with TK-10, in the test on SK-MEL-28 and in the test on SNB-19 was > 100 µM (inactive) each time. The GI50 in the test with UO-31 was > 100 µM (inactive); in the test with EKVX it was > 100 µM (inactive); with A549, > 100 µM (inactive); in the test with RXF 393, > 100 µM (inactive); in the test on HCT-15 it was > 100 µM; in the test on MDA-MB-231, > 100 µM (inactive). Moreover, the GI50 with SNB-75 and with OVCAR-8 was > 100 µM (inactive) throughout.

Consider `COc1ccc2c3c1OC1C(OC)(OC)C=C[C@@]4(Br)[C@@H](C2)N(CC2CC2)CC[C@]314` (stereo not given in full), for which the GI50 was > 100 µM (inactive) in the test with A498; 99.1 µM (inactive) in the test with PC-3; > 100 µM (inactive) in the test with SK-OV-3; 61.2 µM (inactive) in the test on MDA-MB-435; > 100 µM (inactive) with 786-0; > 100 µM (inactive) with U-251. For the same molecule, the GI50 in the test on NCI/ADR-RES is > 100 µM (inactive); in the test with NCI-H522 it was 21 µM (inactive); in the test on KM12 it was > 100 µM (inactive); in the test with TK-10 it was > 100 µM (inactive); in the test with SK-MEL-28 it was > 100 µM (inactive); in the test on SNB-19, > 100 µM (inactive). Moreover, the GI50 in the test on UO-31 is 35.2 µM (inactive); in the test on EKVX, > 100 µM (inactive); with A549, 95.7 µM (inactive); in the test with RXF 393, 76.4 µM (inactive); in the test on HCT-15, > 100 µM; in the test with MDA-MB-231, 45.6 µM (inactive). The values for the GI50 with SNB-75 and with OVCAR-8 were 96.4 µM (inactive) and 61.4 µM (inactive), respectively.

With `CO[C@H]1O[C@@H]2CO[C@@H](c3ccccc3)O[C@H]2[C@@H]2C/C=C\CCC[C@@]12O`, the GI50 is 14.8 µM (inactive) with A498; 25.3 µM (inactive) in the test with PC-3; 29 µM (inactive) in the test with SK-OV-3; 24 µM (inactive) in the test on MDA-MB-435; 16.7 µM (inactive) in the test with 786-0; 20.8 µM (inactive) in the test with U-251. For the same molecule, the GI50 in the test with NCI/ADR-RES is 26.9 µM (inactive); with NCI-H522, 20.1 µM (inactive); in the test with KM12, 22.5 µM (inactive); in the test with TK-10, 34.8 µM (inactive); with SK-MEL-28 it was 30.1 µM (inactive); in the test with SNB-19 it was 38.7 µM (inactive). Besides, the GI50 was 30.8 µM (inactive) in the test on UO-31; 19.4 µM (inactive) in the test with EKVX; 26.9 µM (inactive) in the test on A549; 17.2 µM (inactive) with RXF 393; 24.4 µM in the test on HCT-15; 29 µM (inactive) in the test with MDA-MB-231. In addition, the GI50 in the test on SNB-75 is 59.6 µM (inactive); in the test with OVCAR-8, 34.1 µM (inactive).

As for `C=C(Cl)C(Cl)(CBr)CCC(Cl)C(C)C` (stereo not given), the GI50 is 5.21 µM (inactive) in the test with A498; 1.68 µM (inactive) with PC-3; 26.4 µM (inactive) in the test on SK-OV-3; 6.98 µM (inactive) in the test with MDA-MB-435; 0.337 µM (active) with 786-0; 0.647 µM (active) with U-251. The GI50 in the test with NCI/ADR-RES is 8.55 µM (inactive); in the test with NCI-H522, 5.93 µM (inactive); in the test with KM12, 1.23 µM (inactive); in the test with TK-10 it was 1.33 µM (inactive); in the test with SK-MEL-28, 1.87 µM (inactive); in the test on SNB-19, 4.04 µM (inactive). The GI50 was 2.94 µM (inactive) in the test on UO-31; 14.7 µM (inactive) in the test with EKVX; 8.53 µM (inactive) in the test on A549; 6.3 µM (inactive) in the test with RXF 393; 5.46 µM with HCT-15; 3.95 µM (inactive) in the test on MDA-MB-231. The figures for the GI50 in the test with SNB-75 and with OVCAR-8 were 0.323 µM (active) and 3.19 µM (inactive), respectively.

Values taken from ChEMBL document CHEMBL1201862, “PubChem BioAssay data set” (2004).
